± gives the expanded uncertainty stated by the source.
Experiment: xn = mol fraction of the nth substance listed
Conditions: 100 kPa, Liquid, Falling or rolling sphere viscometry

CCCCCCn1cc[n+](C)c1.F[B-](F)(F)F [1-hexyl-3-methylimidazolium tetrafluoroborate] + C[S+](C)[O-]
viscosity [mPa·s]
Conditions | 293.15 K | 298.15 K | 303.15 K | 313.15 K | 323.15 K | 333.15 K | 343.15 K | 353.15 K
x1 = 0.116 | 4.93 ± 0.2 | 4.18 ± 0.17 | 3.7 ± 0.15 | 2.96 ± 0.12 | 2.43 ± 0.1 | 1.94 ± 0.08 | 1.68 ± 0.07 | 1.37 ± 0.06
x1 = 0.2495 | 11 ± 0.5 | 9.67 ± 0.39 | 8.37 ± 0.34 | 6.47 ± 0.26 | 5.11 ± 0.21 | 4.02 ± 0.16 | 3.14 ± 0.13 | 2.77 ± 0.11
x1 = 0.2831 | 13.7 ± 0.6 | 11.8 ± 0.5 | 10.1 ± 0.4 | 7.71 ± 0.31 | 6.01 ± 0.24 | 4.74 ± 0.19 | 3.68 ± 0.15 | 3.21 ± 0.13
x1 = 0.3857 | 25 ± 1 | 20.6 ± 0.8 | 17.1 ± 0.7 | 12.4 ± 0.5 | 9.35 ± 0.38 | 7.28 ± 0.3 | 5.75 ± 0.23 | 4.72 ± 0.19
x1 = 0.5036 | 44.2 ± 1.8 | 34.9 ± 1.4 | 28.4 ± 1.2 | 19.6 ± 0.8 | 14.3 ± 0.6 | 10.8 ± 0.4 | 8.72 ± 0.35 | 6.7 ± 0.27
x1 = 0.5714 | 58.4 ± 2.4 | 45.6 ± 1.9 | 36.6 ± 1.5 | 24.8 ± 1 | 17.7 ± 0.7 | 13.2 ± 0.5 | 10.6 ± 0.4 | 7.99 ± 0.33
x1 = 0.6702 | 84.8 ± 3.7 | 65.6 ± 2.7 | 51.8 ± 2.1 | 34.1 ± 1.4 | 23.7 ± 1 | 17.2 ± 0.7 | 13.5 ± 0.6 | 10.2 ± 0.4
x1 = 0.7517 | 114 ± 5 | 87.6 ± 3.8 | 68.4 ± 2.8 | 44 ± 1.8 | 30 ± 1.2 | 21.4 ± 0.9 | 16.2 ± 0.7 | 12.3 ± 0.5
x1 = 0.7883 | 130 ± 6 | 99.7 ± 4.5 | 77.5 ± 3.3 | 49.2 ± 2 | 33.3 ± 1.4 | 23.6 ± 1 | 17.6 ± 0.7 | 13.4 ± 0.5
x1 = 0.8976 | 196 ± 11 | 148 ± 8 | 113 ± 5 | 69.4 ± 2.9 | 45.6 ± 1.9 | 31.6 ± 1.3 | 22.5 ± 0.9 | 17.2 ± 0.7
x1 = 1 | 293 ± 20 | 216 ± 13 | 163 ± 9 | 96.7 ± 4.3 | 61.8 ± 2.5 | 41.9 ± 1.7 | 29.5 ± 1.2 | 21.7 ± 0.9

CCCCCCn1cc[n+](C)c1.F[B-](F)(F)F [1-hexyl-3-methylimidazolium tetrafluoroborate] + CC#N
viscosity [mPa·s]
Conditions | x1 = 0.104 | x1 = 0.2049 | x1 = 0.2948 | x1 = 0.4066 | x1 = 0.4616 | x1 = 0.5697 | x1 = 0.6626 | x1 = 0.8083 | x1 = 0.9044 | x1 = 1
293.15 K | 1.15 ± 0.05 | 2.43 ± 0.1 | 4.79 ± 0.2 | 10.5 ± 0.4 | 14.9 ± 0.6 | 29.1 ± 1.2 | 50 ± 2 | 112 ± 5 | 184 ± 10 | 293 ± 20
298.15 K | 1.05 ± 0.04 | 2.26 ± 0.09 | 4.32 ± 0.18 | 9.04 ± 0.37 | 12.7 ± 0.5 | 24 ± 1 | 40.3 ± 1.6 | 86.4 ± 3.8 | 139 ± 7 | 216 ± 13
303.15 K | 0.99 ± 0.04 | 2.08 ± 0.09 | 3.89 ± 0.16 | 7.92 ± 0.32 | 11 ± 0.5 | 20.1 ± 0.8 | 32.8 ± 1.3 | 67.7 ± 2.8 | 106 ± 5 | 163 ± 9
313.15 K | 0.87 ± 0.04 | 1.79 ± 0.07 | 3.21 ± 0.13 | 6.19 ± 0.25 | 8.36 ± 0.34 | 14.6 ± 0.6 | 22.8 ± 0.9 | 43.9 ± 1.8 | 65.9 ± 2.7 | 96.7 ± 4.3
323.15 K | 0.78 ± 0.03 | 1.56 ± 0.06 | 2.69 ± 0.11 | 4.98 ± 0.2 | 6.58 ± 0.27 | 11 ± 0.5 | 16.6 ± 0.7 | 30.1 ± 1.2 | 43.5 ± 1.8 | 61.8 ± 2.5
333.15 K | 0.71 ± 0.03 | 1.37 ± 0.06 | 2.3 ± 0.09 | 4.1 ± 0.17 | 5.32 ± 0.22 | 8.58 ± 0.35 | 12.5 ± 0.5 | 21.7 ± 0.9 | 30.4 ± 1.2 | 41.9 ± 1.7
343.15 K | 0.65 ± 0.03 | 1.22 ± 0.05 | 1.99 ± 0.08 | 3.43 ± 0.14 | 4.38 ± 0.18 | 6.85 ± 0.28 | 9.75 ± 0.4 | 16.2 ± 0.7 | 22.1 ± 0.9 | 29.5 ± 1.2

From the NIST ThermoML archive (doi:10.1021/acs.jced.8b00684)
